Source: paper PMC12424289, “Programmable Nanostructure Assembly of a Paclitaxel Derivative Enables Tunable Anticancer Therapy via Hydrogen Bond Engineering” (ACS Nano, 2025)
pIC50: −log10 of the molar value.

Assays:
[1] = Serum biochemistry safety assessment; type: in vivo, Balb/c mice; settings: mice, iv 10 mg·kg^–1 PTX equivalent, q.o.d. × 5, day 10; PTP versus PTP@PEG
Protocol: In a related safety assessment, female Balb/c mice (18–22 g, n = 3) were fasted for 12 h, then treated intravenously with either 5% G, PTX solution, PTP, or PTP@PEG using the previously described dosing regimen (10 mg·kg^–1 PTX equivalent, q.o.d. × 5). On day 10, blood was collected and then processed to obtain serum by centrifugation (2000 rpm, 10 min, 4 °C). Serum samples were subsequently analyzed for biochemical markers using a Chemray 240 automated analyzer (Rayto Life and Analytical Sciences Co., Ltd., China).

[2] = test system: human ovarian SKOV3 cells; experiment: CCK8 antiproliferation assay, SKOV3; type: cell-based; settings: SK-OV-3, SKOV3, 48 h treatment
Protocol: The mouse breast cancer cell line 4T1 and the human ovarian cancer cell line SKOV3 were cultured in RPMI 1640 medium supplemented with 10% fetal bovine serum, 100 units·mL^–1 penicillin, and 100 μg·mL^–1 streptomycin. The human lung cancer cell line A549 and the luciferase-expressing human colorectal carcinoma cell line HCT116-Luc were cultured in high-glucose DMEM medium supplemented with 10% fetal bovine serum, 100 units·mL^–1 penicillin, and 100 μg·mL^–1 streptomycin. All cell lines were maintained at 37 °C in a Steri-Cycle 371 incubator (Thermo Scientific, USA) with a humidified atmosphere of 5% CO2. Only cells between passages 5 and 15 were used for cell-based experiments.
The antiproliferative activity of PTP was evaluated using the Cell Counting Kit-8 (CCK8) assay. PTX solution served as a positive control. Cell suspensions were prepared at a density of 3 × 10^4 cells·mL^–1 and seeded in 96-well plates at a volume of 100 μL per well. The plates were incubated for 24 h to allow cell attachment and growth. Subsequently, the culture media were replaced with fresh media containing varying concentrations of PTX or PTP solutions (100 μL per well), and the cells were incubated for an additional 48 h (n = 3). Control wells received fresh culture media alone (n = 3). […] Finally, the absorbance was measured at 450 nm using a microplate reader (Synergy H1, BioTek, USA). […]

[3] = Stability in rat plasma; type: in vitro ADME
Protocol: For plasma stability studies, a PTP or PTP@PEG dispersion (1.2 mg·mL^–1, PTP-equivalent) was diluted with plasma to a final concentration of 100.0 μg·mL^–1. Plasma was obtained from male rat blood by centrifugation (1600 × g, 15 min). Aliquots (100 μL each) were incubated at 37 °C with agitation at 100 rpm, and samples were collected at designated time points in triplicate. Proteins were precipitated by adding 200 μL acetonitrile, followed by vortex mixing and centrifugation at 17 000 rpm and 4 °C for 30 min. The resulting supernatants were analyzed by HPLC.

[4] = Biodistribution in 4T1 tumor-bearing mice; type: in vivo, Balb/c mice; settings: iv 10.0 mg·kg^–1
Protocol: For plasma samples, 50 μL of plasma was mixed with 100 μL of a docetaxel acetonitrile solution (15 ng·mL^–1) for protein precipitation. The mixture was vortexed and then centrifuged at 4 °C, 17 000 rpm for 30 min. For tissue samples, mice were euthanized at specified time points, and tissues were harvested and rinsed with saline. Two kidneys, the entire heart, spleen, lung, tumor, and 150–200 mg of liver were placed in grinding tubes. Saline was added at a ratio of 1:5 (m/v), and the tissues were ground using a freezing grinder (Jingxin, China) at 4 °C. Next, 100 μL of docetaxel acetonitrile solution (15 ng·mL^–1) was added to 50 μL of the tissue homogenate. […] The supernatants for both plasma and tissue samples were analyzed by LC-MS as described below.
The concentrations of PTP and PTX in plasma and tissue samples were determined using liquid chromatography–mass spectrometry (LC-MS) with a G6470A system (Agilent, USA) equipped with a C18 column (2.1 × 100 mm, 2.7 μm, Agilent, USA). […]
Pharmacokinetic features were evaluated in Sprague–Dawley rats (200–300 g, n = 6 per group) following a single intravenous administration of PTX solution (1.0 mg·mL^–1), PTP (1.2 mg·mL^–1), or PTP@PEG (1.2 mg·mL^–1) at a dose equivalent to 3.0 mg·kg^–1 PTX. […] Biodistribution was assessed in female Balb/c mice (18–22 g; n = 6 per group) bearing subcutaneous 4T1 tumors (target volume 200–300 mm^3). […]

CC(=O)O[C@H]1C(=O)[C@@]2(C)[C@H]([C@H](OC(=O)c3ccccc3)[C@]3(O)C[C@H](OC(=O)[C@H](OC(=O)CCP(=O)(O)O)[C@@H](NC(=O)c4ccccc4)c4ccccc4)C(C)=C1C3(C)C)[C@]1(OC(C)=O)CO[C@@H]1C[C@@H]2O [PTP, PTX-2’–OOC-P]
blood urea nitrogen (BUN) and creatinine (CREA) levels [1]: comparable | pIC50 [2]: 7.51 | degradation faster than PTP@PEG ([3]; rat plasma, 37 °C): 1.2 fold | degradation rate constant (k) in plasma ([3]; rat plasma, 37 °C, 100 μg·mL^–1 PTP-equivalent): 0.23 h^–1 | parent compound left ([3]; rat plasma, 37 °C, after 10 h): 10.4% | degraded in plasma ([3]; within 10 h, 100.0 μg·mL^–1): approximately 90% | biodistribution, organs of accumulation [4]: primarily accumulated in the liver and kidney
